Test results: PMC9365693 (Nature, 2022)
Ends that are not written are not given here.

Experiments:
Staphylococcus simulans [1] = test: Sytox green membrane damage assay, S. simulans; format: cell-based; details: Sytox green, Gram-positive bacteria, 20 °C, pH 7.2, 2 min before and 6 min after antibiotic; triplicates
Protocol: (§1) The bacterial cultures were grown overnight at 30 °C in TSB media for S. simulans and at 37 °C in LB medium for Bacillus subtilis. Secondary cultures were grown for 3 h until OD600 = 0.5 was reached. The bacterial cells were then centrifuged at 1,500g for 10 min at 4 °C and washed twice with 10 ml of buffer (10 mM Tris, 100 mM NaCl, 1 mM MgCl2 and 0.5% glucose, pH 7.2). The bacterial cells were resuspended to an OD600 = 10 in the buffer and used for the experiment. […] For the assay, 1 μl of the bacterial suspension was added to 1 ml of buffer. For the ion leakage assays, 1 μl of the DiSC-2 probe from a 1 mM stock was added to the cuvette and the fluorescence was measured between a wavelength of 650 nm and 670 nm (bandwidth of […]) for 2 min before the addition of the antibiotic and 6 min after. For the Sytox green leakage assays, 1 μl of the Sytox green probe from a 0.25 mM stock was added to the cuvette and the fluorescence was measured between a wavelength of 500 nm and 520 nm (bandwidth of […]) for 2 min before the addition of the antibiotic and 6 min after. All experiments were performed in triplicates.

S. simulans = test: MIC, S. simulans (given with permeabilization assay concentrations); format: cell-based
Staphylococcus simulans [2] = test: DiSC membrane depolarization (ion leakage) assay, S. simulans; format: cell-based; details: DiSC-2 probe, Gram-positive bacteria (Fig. 4h and Extended Data Fig. 10b,c), 20 °C, pH 7.2, 2 min before and 6 min after antibiotic; triplicates
Protocol: as §1

B. subtilis = test: MIC, B. subtilis (given with permeabilization assay concentrations); format: cell-based, Bacillus subtilis
Protocol: as §1

[3] = species not clearly assigned (S. simulans by word order)

Row | Compound | membrane damage, Sytox green (in words) (Staphylococcus simulans [1]) | concentration stated as 10× MIC (S. simulans; [3]) [µM] | decrease in membrane potential / depolarization (in words) (Staphylococcus simulans [2]) | concentration stated as 1× MIC (S. simulans; [3]) [µM] | concentration stated as 1× MIC (S. simulans; S. simulans) [µM] | concentration stated as 10× MIC (B. subtilis) [µM]
1 | CN[C@H](CC(C)C)C(=O)N[C@H]1C(=O)N[C@@H](CC(N)=O)C(=O)N[C@H]2C(=O)N[C@H]3C(=O)N[C@H](C(=O)N[C@H](C(=O)O)c4cc(O)cc(O)c4-c4cc3ccc4O)[C@H](O)c3ccc(c(Cl)c3)Oc3cc2cc(c3O[C@@H]2O[C@H](CO)[C@@H](O)[C@H](O)[C@H]2O[C@H]2C[C@](C)(N)[C@H](O)[C@H](C)O2)Oc2ccc(cc2Cl)[C@H]1O [vancomycin] | Such effects were again absent | 10 | – | – | – | –
2 | nisin | – | – | Membrane depolarization was also observed | 0.01 | – | –
3 | plectasin: lipid II binder plectasin (GFGCNGPWDEDDMQCHNHCKSIKGYKGGYCAKGGFVCKCY; ends and bridges not checked; cysteine pairing not given here; UniProt Q53I06 56-95, looked up) [reference compound] | Such effects were again absent | – | – | – | 0.5 | 0.2
